Source: ChEMBL document CHEMBL4831491, “Non-carboxylic acid inhibitors of aldose reductase based on N-substituted thiazolidinedione derivatives” (Eur J Med Chem, 2021)
Values after ≈ are worked out from the molar mass of the structure shown.

Legend:
[1] = species: Rattus norvegicus; experiment: Selectivity index, ratio of IC50 for ALR1 in Wistar rat kidney to IC50 for ALR2 in Wistar rat lens
[2] = Inhibition of ALR2 in Wistar rat lens assessed as reduction in NADPH consumption using D,L-glyceraldehyde and NADPH as substrate preincubated for 1 mins followed by substrate addition and measured upto 4 mins by spectrophotometric analysis; type: tissue-based
[3] = Inhibition of ALR1 in Wistar rat kidney assessed as reduction in NADPH consumption using sodium D-glucuronate and NADPH as substrate preincubated for 1 mins followed by substrate addition and measured upto 4 mins by spectrophotometric analysis; type: tissue-based
[4] = Solubility of the compound at >30 uM; type: physicochemical
[5] = physchem; settings: n-octanol/PBS buffer, pH 7.4
[6] = species: Rattus norvegicus; experiment: Inhibition of ALR2 in Wistar rat lens assessed as reduction in NADPH consumption at 10 uM using D,L-glyceraldehyde and NADPH as substrate preincubated for 1 mins followed by substrate addition and measured upto 4 mins by spectrophotometric analysis; type: tissue-based; settings: time 5.0 min
[7] = physchem; settings: PBS buffer, pH 7.4
[8] = in vitro; settings: dog, MDCK
Description: Efflux ratio of apparent permeability in dog MDCK-II cells

[9] = in vitro; settings: dog, MDCK; remark: listed apart in the source
Description: Apparent permeability of the compound across basolateral side to apical side in dog MDCK-II cells incubated for 150 mins by LC-MS/MS analysis

[10] = in vitro; settings: dog, MDCK; remark: listed apart in the source
Description: Apparent permeability of the compound across apical side to basolateral side in dog MDCK-II cells incubated for 150 mins by LC-MS/MS analysis

[11] = species: Rattus norvegicus; experiment: Inhibition of ALR2 in Wistar rat lens assessed as reduction in NADPH consumption at 50 uM using D,L-glyceraldehyde and NADPH as substrate preincubated for 1 mins followed by substrate addition and measured upto 4 mins by spectrophotometric analysis; type: tissue-based; settings: time 5.0 min
[12] = species: Rattus norvegicus; experiment: Inhibition of ALR2 in Wistar rat lens assessed as reduction in NADPH consumption at 30 uM using D,L-glyceraldehyde and NADPH as substrate preincubated for 1 mins followed by substrate addition and measured upto 4 mins by spectrophotometric analysis; type: tissue-based; settings: time 5.0 min
[13] = in vitro; settings: human, Caco-2
Description: Apparent permeability of the compound across apical side to basolateral side in human Caco-2 cells incubated for 150 mins by LC-MS/MS analysis

[14] = in vitro; settings: human, Caco-2; remark: listed apart in the source
Description: Apparent permeability of the compound across basolateral side to apical side in human Caco-2 cells incubated for 150 mins by LC-MS/MS analysis

[15] = in vitro; settings: human, Caco-2; remark: listed apart in the source
Description: Efflux ratio of apparent permeability in human Caco-2 cells

`CCCCNC(=O)CN1C(=O)S/C(=C\c2ccc(OC)cc2)C1=O` showed a Ratio IC50 [1] of 0.8, an IC50 ([2]; read-out: IC50) of 20.3 µM and an IC50 [3] of 17 µM. For the same compound, the solubility [4] was “Insoluble”.
`CN(C)CCC=C1c2ccccc2CCc2ccccc21` [AMITRIPTYLINE] gave a logD [5] of 2.85.
`COCCc1ccc(OCC(O)CNC(C)C)cc1` (centres undefined) [METOPROLOL] showed a logD [5] of 0.05.
With `CCOc1ccc(NC(=O)CN2C(=O)S/C(=C\c3ccc(OC)c(O)c3)C2=O)cc1` the inhibition [6] was 25.3% and the IC50 [2] was “Nd(Insoluble)”.
Compound `O=C(CCCN1CCC(O)(c2ccc(Cl)cc2)CC1)c1ccc(F)cc1` [HALOPERIDOL] has a solubility at 2 h, 200 µM [7] of 73.3 µM (≈ 27.6 µg/mL).
With `C[C@H]1O[C@@H](O[C@H]2[C@@H](O)C[C@H](O[C@H]3[C@@H](O)C[C@H](O[C@H]4CC[C@@]5(C)[C@H](CC[C@@H]6[C@@H]5C[C@@H](O)[C@]5(C)[C@@H](C7=CC(=O)OC7)CC[C@]65O)C4)O[C@@H]3C)O[C@@H]2C)C[C@H](O)[C@@H]1O` [DIGOXIN] the efflux ratio [8] was 30.3, the Papp B→A at 2.5 h [9] was 5.66 ×10⁻⁶ cm/s and the Papp A→B at 2.5 h [10] was 0.19 ×10⁻⁶ cm/s.
For `CCN(CC)C(=O)CN1C(=O)S/C(=C\c2ccc(O)cc2)C1=O`, the Ratio IC50 [1] was 9.4, the inhibition [6] was 77.7% and the IC50 ([2]; read-out: IC50) was 1.33 µM. The IC50 [3] was 12.5 µM and the solubility [4] was “Insoluble”.
`O=C(CN1C(=O)S/C(=C\c2ccc(O)cc2)C1=O)NCc1ccccc1` gave an IC50 ([2]; read-out: IC50) of 19.8 µM.
For `CC/C(=C(/CC)c1ccc(O)cc1)c1ccc(O)cc1` [DIETHYLSTILBESTROL], the solubility at 2 h, 200 µM [7] was 11.9 µM (≈ 3.21 µg/mL).
For `CCN(CC)C(=O)CN1C(=O)S/C(=C\c2ccc(O)c(OC)c2)C1=O`, the inhibition [11] was 48% and the IC50 ([2]; read-out: IC50) was 56 µM.
Compound `CCN(CC)C(=O)CN1C(=O)S/C(=C\c2ccc(OC)c(O)c2)C1=O` has an inhibition [11] of 31.6%.
For `CCN(CC)C(=O)CN1C(=O)S/C(=C\c2cccc(Cl)c2)C1=O`, the inhibition [12] was 0% and the solubility [4] was “Insoluble”.
With `CCN(CC)C(=O)CN1C(=O)S/C(=C\c2ccc(Cl)cc2)C1=O` the inhibition [12] was 14% and the solubility [4] was “Insoluble”.
With `C#CCOc1ccc(/C=C2\SC(=O)N(CC(=O)NCc3ccccc3)C2=O)cc1` the inhibition [6] was 30.1% and the IC50 [2] was “Nd(Insoluble)”.
Compound `COc1ccc(NC(=O)CN2C(=O)S/C(=C\c3ccc(O)cc3)C2=O)cc1` has a Ratio IC50 [1] of 3.2, an IC50 ([2]; read-out: IC50) of 1.65 µM and an IC50 [3] of 5.3 µM.
With `O=C(CN1C(=O)S/C(=C\c2ccccc2)C1=O)NCCc1ccccc1` the inhibition [6] was 13.2% and the solubility [4] was “Insoluble”.
For `O=C(CN1C(=O)S/C(=C\c2cccc(O)c2)C1=O)NCc1ccccc1`, the Ratio IC50 [1] was 8.6, the IC50 ([2]; read-out: IC50) was 3.25 µM and the IC50 [3] was 28 µM.
For `O=c1[nH]c2ccccc2n1CCCN1CCC(n2c(=O)[nH]c3cc(Cl)ccc32)CC1` [DOMPERIDONE], the Papp A→B at 2.5 h [13] was 2.5 ×10⁻⁶ cm/s, the Papp B→A at 2.5 h [14] was 30.8 ×10⁻⁶ cm/s and the efflux ratio [15] was 12.2.
With `CC(/C=C1\SC(=S)N(CC(=O)O)C1=O)=C\c1ccccc1` the IC50 ([2]; read-out: IC50) was 0.227 µM.
In the case of `CCN(CC)C(=O)CN1C(=O)S/C(=C\c2ccc(C)cc2)C1=O`, the inhibition [12] is reported as 20.2% and the solubility [4] is reported as “Insoluble”.
In the case of `COc1ccc(/C=C2\SC(=O)N(CC(=O)Nc3ccccc3)C2=O)cc1O`, the inhibition [6] is reported as 29.9% and the IC50 [2] is reported as “Nd(Insoluble)”.
With `COc1ccc(NC(=O)CN2C(=O)S/C(=C\c3ccccc3)C2=O)cc1` the inhibition [6] was 29.2% and the solubility [4] was “Insoluble”.
Compound `CCN(CC)C(=O)CN1C(=O)S/C(=C/c2ccc(OC)c(OC)c2)C1=O` has an inhibition [11] of 81.8% and an IC50 ([2]; read-out: IC50) of 22.4 µM.
For `O=C(CN1C(=O)S/C(=C\c2ccc(OCc3ccc(Cl)cc3Cl)cc2)C1=O)NCc1ccccc1`, the inhibition [6] was 11.9% and the IC50 [2] was “Nd(Insoluble)”.
With `CCN(CC)C(=O)CN1C(=O)S/C(=C\c2ccc(OC)cc2)C1=O` the inhibition [12] was 19.5% and the solubility [4] was “Insoluble”.
For `O=C(CN1C(=O)S/C(=C\c2ccc(O)cc2)C1=O)Nc1ccccc1Cl`, the IC50 ([2]; read-out: IC50) was 0.95 µM, the logD [5] was 3.68 and the IC50 [3] was 13.5 µM. For the same compound, the solubility at 2 h, 200 µM [7] was 5.24 µM (≈ 2.04 µg/mL).
`COc1cc2nc(N3CCN(C(=O)c4ccco4)CC3)nc(N)c2cc1OC` [PRAZOSIN] gave an efflux ratio [8] of 1.9, a Papp B→A at 2.5 h [9] of 12.9 ×10⁻⁶ cm/s and a Papp A→B at 2.5 h [10] of 6.85 ×10⁻⁶ cm/s.
For `CCc1ccc(/C=C2\SC(=O)N(CC(=O)N(CC)CC)C2=O)cc1`, the inhibition [12] was 5.05% and the solubility [4] was “Insoluble”.
Work on `O=C(CN1C(=O)S/C(=C\c2ccc(O)cc2)C1=O)Nc1ccc(F)cc1` yielded a Ratio IC50 [1] of 5.4, an IC50 ([2]; read-out: IC50) of 1.47 µM and an IC50 [3] of 8.06 µM.
In the case of `C#CCOc1ccc(/C=C2\SC(=O)N(CC(=O)Nc3ccccc3)C2=O)cc1`, the inhibition [6] is reported as 8.83% and the IC50 [2] is reported as “Nd(Insoluble)”.
In the case of `CCCCNC(=O)CN1C(=O)S/C(=C\c2ccc(Cl)cc2)C1=O`, the inhibition [6] is reported as 6.53% and the solubility [4] is reported as “Insoluble”.
In the case of `O=C(CN1C(=O)S/C(=C\c2ccc(OCc3ccc(Cl)cc3Cl)cc2)C1=O)Nc1ccccc1`, the inhibition [6] is reported as 21.8% and the IC50 [2] is reported as “Nd(Insoluble)”.
Compound `O=C(CN1C(=O)S/C(=C\c2ccc(O)cc2)C1=O)Nc1ccccc1` has a Ratio IC50 [1] of 1.3, an IC50 ([2]; read-out: IC50) of 2.93 µM and an IC50 [3] of 3.91 µM.
With `CCN(CC)C(=O)CN1C(=O)S/C(=C\c2cccc(OC)c2)C1=O` the inhibition [12] was 15% and the solubility [4] was “Insoluble”.
For `Cc1ncc2n1-c1ccc(Cl)cc1C(c1ccccc1F)=NC2` [MIDAZOLAM], the logD [5] was 3.28.
For `CCN(CC)C(=O)CN1C(=O)S/C(=C\c2cccc(O)c2)C1=O`, the inhibition [12] was 0% and the solubility [4] was “Insoluble”.
Compound `COc1ccc(/C=C2\SC(=O)N(CC(=O)NCc3ccccc3)C2=O)cc1O` has an IC50 ([2]; read-out: IC50) of 10.9 µM.
`NC(=O)N1c2ccccc2C=Cc2ccccc21` [CARBAMAZEPINE] gave a Papp A→B at 2.5 h [13] of 26.2 ×10⁻⁶ cm/s, a Papp B→A at 2.5 h [14] of 24.8 ×10⁻⁶ cm/s and an efflux ratio [15] of 0.9.
`CCCCNC(=O)CN1C(=O)S/C(=C\c2ccc(O)cc2)C1=O` showed a Ratio IC50 [1] of 8.5, an IC50 ([2]; read-out: IC50) of 5.68 µM and an IC50 [3] of 48.5 µM. For the same compound, the solubility [4] was “Insoluble”.
For `CCc1ccccc1NC(=O)CN1C(=O)S/C(=C\c2ccc(O)cc2)C1=O`, the Ratio IC50 [1] was 1.5, the IC50 ([2]; read-out: IC50) was 1.9 µM and the IC50 [3] was 2.85 µM.
`C=C[C@H]1C[N@@]2CC[C@H]1C[C@@H]2[C@@H](O)c1ccnc2ccc(OC)cc12` [QUINIDINE] showed an efflux ratio [8] of 6.6, a Papp B→A at 2.5 h [9] of 21.4 ×10⁻⁶ cm/s and a Papp A→B at 2.5 h [10] of 3.27 ×10⁻⁶ cm/s.
With `CCN(CC)C(=O)CN1C(=O)S/C(=C\c2cccs2)C1=O` the inhibition [12] was 6.22% and the solubility [4] was “Insoluble”.
In the case of `CCN(CC)C(=O)CN1C(=O)S/C(=C\c2ccccc2)C1=O`, the inhibition [6] is reported as 16.8%, the IC50 ([2]; read-out: IC50) is reported as 23.5 µM and the solubility [4] is reported as “Insoluble”.
For `O=C(CN1C(=O)S/C(=C\c2ccccc2)C1=O)NC1CC1`, the inhibition [6] was 2.85% and the solubility [4] was “Insoluble”.
